Assay results taken from patent US11839210B1, “Plant growth promoter with strigolactones regulation activities” (King Abdullah University of Science and Technology, priority 2017, dated 2023).

What was measured:
D17 = assay: qRT-PCR of D17 gene expression in rice roots after zaxinone treatment; assay type: in vivo, rice (Oryza sativa Nipponbare); conditions: −Pi, 6 h
Experimental: (§1) For the analysis of SL transcript levels in the zas mutant, one week-old seedlings were grown hydroponically in half-strength modified Hoagland nutrient solution with K2HPO4·2H2O (+Pi) and without K2HPO4·2H2O (−Pi) for 7 days. Seedlings were further treated with zaxinone for 6 h and tissues were collected.
(§2) Total RNA was extracted from the roots and shoots using a Qiagen Plant RNeasy Kit according to the manufacturer's instruction. cDNA was synthesized from 1 μg of total RNA using iScript cDNA Synthesis Kit (BIO-RAD Laboratories, Inc, 2000 Alfred Nobel Drive, Hercules, CA, Cat. No #170-8890) according to instructions in the user manual. For mycorrhizal samples, single-strand cDNA was synthesized from 1 μg of total RNA using Super-Script II (Invitrogen) according to instructions in the user manual. Primers used for real-time quantitative RT-PCR (qRT-PCR) analysis are listed below in Table 3. qRT-PCR was performed using SYBR Green Master Mix (Applied Biosystems; www.lifetechnologies.com) in a StepOnePlus (Life Technologies, Carlsbad, CA, USA). For mycorrhizal samples, qRT-PCR was performed using a Rotor-Gene Q 5plex HRM Platform (Qiagen). The 2-ΔCt method was used to calculate the relative gene expression levels and rice Ubiquitin (OsUBQ or OsRubQ1) gene was used as the internal control to normalize target gene expression.
(§3) 14-day-old rice seedlings were transferred to new hydroponic pots containing fresh media with or without chemicals for 6 hours. SL biosynthetic (D27, D10, D17 and MAX1-Os900) gene expression were determined under −Pi conditions (phosphate deficient) with zaxinone (2.5 and 5 μM) treatment of both Nipponbare wild-type (WT) rice roots and zas mutant rice roots. The expression levels (1301) were detected by quantitative RT-PCR. Ubiquitin was used as a reference gene. Mock treatment (control) treatment consisted of 0.1% acetone. Bars (1302) show comparisons between the treatments and represent mean±SD (n=3). Decrease in SLs levels in the plants treated with zaxinone ranged from approximately 40% to 70%.

D27 = assay: qRT-PCR of D27 gene expression in rice roots after zaxinone treatment; assay type: in vivo, rice (Oryza sativa Nipponbare); conditions: −Pi, 6 h
Experimental: as §1, §2, §3

4-deoxyorobanchol (4-DO) = assay: LC-MS/MS quantification of 4-deoxyorobanchol in rice roots and root exudates; assay type: in vivo; conditions: phosphate-starved, 6 h
Experimental: For the analysis of SLs, one week-old seedlings were further transferred into 50 ml falcon tube (three seedlings per tube) containing Hoagland nutrient solution with K2HPO4·2H2O (+Pi) and grown in the growth cabinet for one week. The rice seedlings were then subjected to phosphate deficiency for another one week period. On the day of root exudates collection, rice seedlings were first treated with 5 μM zaxinone for 6 h and then root exudates and root tissues were collected from each tube for LC-MS/MS analysis and Striga bioassays.
For the quantification of 4-deoxyorobanchol in rice root exudates, 50 ml of root exudate spiked with 0.672 ng of D6-5-deoxystrigol, was brought on a 500 mg/3 ml fast SPE C18 column preconditioned with 6 ml of methanol and 6 ml of water. After washing with 6 ml of water, strigolactones were eluted in 5 ml of acetone. The 4-deoxyorobanchol fraction (acetone-water solution) was concentrated to SLs aqueous solution (˜1 ml), followed by extraction with 1 ml of ethyl acetate. Then 750 μl of 4-deoxyorobanchol enriched organic phase was transferred to a 1.5 ml tube and evaporated to dryness under vacuum. The residue was dissolved in 100 μl of acetonitrile:water (25:75, v:v) and filtered through a 0.22 μm filter for LC-MS/MS analysis.
For the quantification of 4-deoxyorobanchol in rice root, plant tissue material was lyophilized and ground. 30 mg root tissue spiked with 0.672 ng of D6-5-deoxystrigol was extracted with 2 ml of ethyl acetate in an ultrasound bath (Branson 3510 ultrasonic bath) for 15 minutes, followed by centrifugation for 8 minutes at 3800 rpm at 4° C. The supernatant was collected and the pellet was re-extracted with 2 ml of ethyl acetate. The two supernatants were then combined and dried under vacuum. The residue was dissolved in 100 μl of ethyl acetate and 2 ml of hexane. The resulting extract solution was loaded on a Silica gel SPE column (500 mg/3 ml) preconditioned with 3 ml of ethyl acetate and 3 ml of Hexane. After washing with 3 ml of Hexane, 4-deoxyorobanchol was eluted in 3 ml of ethyl acetate and evaporated to dryness under vacuum. The residue was re-dissolved in 200 μl of acetonitrile:water (25:75, v:v) and filtered through a 0.22 μm filter for LC-MS/MS analysis.
4-Deoxyorobanchol was analyzed by using HPLC-Q-Trap-MS/MS with MRM mode. Chromatographic separation was achieved on an Agilent 1200 HPLC system with an Acquity UPLC BEH C18 column (50×2.1 mm; 1.7 μm; Waters Corp.). Mobile phases consisted of water:acetonitrile (95:5, v:v, A) and acetonitrile (B), both containing 0.1% formic acid. […]
SL, 4-deoxyorobanchol (4-DO), was quantified in wild-type and zas mutant roots (FIG. 18A) and root exudates (FIG. 18B) without added zaxinone and in response to zaxinone (5 μM) under phosphate starvation. […]

MAX1-Os900 = assay: qRT-PCR of MAX1-Os900 gene expression in rice roots after zaxinone treatment; assay type: in vivo, rice (Oryza sativa Nipponbare); conditions: −Pi, 6 h
Experimental: as §1, §2, §3

[1] = WT rice roots, 2.5 μM zaxinone, WT mock approx. 1.0
[2] = WT rice roots, 5.0 μM zaxinone, WT mock approx. 1.0
[3] = zas mutant rice roots, 2.5 μM zaxinone
[4] = zas mutant rice roots, 5.0 μM zaxinone

CC(=O)/C=C/C=C(C)/C=C/C1=C(C)C[C@@H](O)CC1(C)C [zaxinone, 3-OH-β-apo-13-carotenone]
decrease of D17 relative expression vs mock (D17; WT rice roots, 2.5 μM zaxinone): approximately 75% | D17 relative expression (D17; [1]): approximately 0.25 | decrease of D17 relative expression vs mock (D17; WT rice roots, 5.0 μM zaxinone): ~70% | D17 relative expression (D17; [2]): approximately 0.3 | decrease of D17 relative expression vs mock (D17; [3]): approximately 60% | D17 relative expression (D17; zas mutant rice roots, 2.5 μM zaxinone, zas mock approx. 2.5): approximately 1.0 | decrease of D17 relative expression vs mock (D17; [4]): ~68% | D17 relative expression (D17; zas mutant rice roots, 5.0 μM zaxinone, zas mock approx. 2.5): approximately 0.8 | decrease of D27 relative expression vs mock (D27; WT rice roots, 2.5 μM zaxinone): approximately 50% | D27 relative expression (D27; [1]): approximately 0.5 | decrease of D27 relative expression vs mock (D27; WT rice roots, 5.0 μM zaxinone): ~75% | D27 relative expression (D27; [2]): approximately 0.25 | decrease of D27 relative expression vs mock (D27; [3]): approximately 63% | D27 relative expression (D27; zas mutant rice roots, 2.5 μM zaxinone, zas mock approx. 3.25): approximately 1.2 | decrease of D27 relative expression vs mock (D27; [4]): ~77% | D27 relative expression (D27; zas mutant rice roots, 5.0 μM zaxinone, zas mock approx. 3.25): approximately 0.75 | SL content in roots and root exudates (4-deoxyorobanchol (4-DO); Shiokari d3 mutant, 5 μM): lowered | SL content in roots and root exudates (4-deoxyorobanchol (4-DO); wild-type seedlings, 5 μM zaxinone): Reduction of SL content | SL (4-deoxyorobanchol) content in roots after zaxinone (4-deoxyorobanchol (4-DO); zas mutant seedlings, 5 μM zaxinone, untreated 13): 5 pgmg^−1dry-root-weight | SL (4-deoxyorobanchol) content in root exudates after zaxinone (4-deoxyorobanchol (4-DO); zas mutant seedlings, 5 μM zaxinone, untreated 35): 5 pgmg^−1 dry-root-weight | decrease of MAX1-Os900 relative expression vs mock (MAX1-Os900; WT rice roots, 2.5 μM zaxinone): approximately 75% | MAX1-Os900 relative expression (MAX1-Os900; [1]): approximately 0.25 | decrease of MAX1-Os900 relative expression vs mock (MAX1-Os900; WT rice roots, 5.0 μM zaxinone): ~60% | MAX1-Os900 relative expression (MAX1-Os900; [2]): approximately 0.4 | decrease of MAX1-Os900 relative expression vs mock (MAX1-Os900; [3]): approximately 43% | MAX1-Os900 relative expression (MAX1-Os900; zas mutant rice roots, 2.5 μM zaxinone, zas mock approx. 2.1): approximately 1.2 | decrease of MAX1-Os900 relative expression vs mock (MAX1-Os900; [4]): ~57% | MAX1-Os900 relative expression (MAX1-Os900; zas mutant rice roots, 5.0 μM zaxinone, zas mock approx. 2.1): approximately 0.9
